Columns and labels:
Format in all cases: functional, cell-based
Conditions in all cases: Homo sapiens
[1] = tested on: A-431; assay: Cell viability in A431 cells unstimulated with EGF was tested when incubated with concentration up to 10 uM after 48 h; Did not affect the viability
[2] = tested on: A-431; assay: Cell viability in A431 cells when stimulated with EGF was tested when incubated with concentration up to 10 uM after 48 h; Did not affect the viability
[3] = tested on: A-431; assay: Cell viability in A431 cells when stimulated with EGF was tested when incubated with concentration 0.01 uM after 48 h; Cell death
[4] = tested on: A-431; assay: Cell viability in A431 cells when stimulated with EGF was tested when incubated with concentration in the range of 1-10 uM of the compound after 48 h; Cell death
[5] = tested on: A-431; assay: Cell viability in A431 cells unstimulated with EGF was tested when incubated with concentration in the range of 1-10 uM after 48 h; Did not affect the viability
[6] = tested on: A-431; assay: Cell viability in A431 cells when stimulated with EGF was tested when incubated with concentration 2 uM after 48 h; Cell death
[7] = tested on: A-431; assay: Cell viability in A431 cells unstimulated with EGF was tested when incubated with concentration at 2 uM after 48 h; Did not affect the viability

SMILES: CC[C@H]1[C@@H](O)[C@H](C)C/C(C)=C/C=C/[C@H](OC)[C@@H]([C@@H](C)COC(c2ccccc2)(c2ccccc2)c2ccc(OC)cc2)OC(=O)/C(OC)=C/C(C)=C/[C@@H](C)[C@H]1O
- Activity [1]: No effect
- Activity [2]: No effect

SMILES: CC[C@@H]([C@@H](O)[C@H](C)C/C(C)=C/C=C/[C@H](OC)[C@H](O)[C@@H](C)COC(c1ccccc1)(c1ccccc1)c1ccc(OC)cc1)[C@H](O)[C@H](C)/C=C(C)/C=C(\OC)C(=O)OC
- Activity [1]: No effect
- Activity [3]: No effect

SMILES: CC[C@H]1[C@@H](O)[C@H](C)C/C(C)=C/C=C/[C@H](OC)[C@@H]([C@@H](C)CO)OC(=O)/C(OC)=C/C(C)=C/[C@@H](C)[C@H]1O
- Activity [4]: No effect
- Activity [5]: No effect

SMILES: C/C=C/[C@H]1O[C@@](O)([C@@H](C)[C@H](O)[C@H](C)[C@H]2OC(=O)/C(OC)=C/C(C)=C/[C@@H](C)[C@@H](O)[C@@H](CC)[C@@H](O)[C@H](C)C/C(C)=C/C=C/[C@@H]2OC)C[C@@H](O)[C@@H]1C
- Activity [6]: No effect
- Activity [7]: No effect
